Data: patent publication US11814364B2, “Pyridine N-oxide derivatives useful as factor XIa inhibitors” (Janssen Pharmaceutica NV, priority 2021, dated 2023)

Biological target: human plasma kallikrein (Homo sapiens, UniProt P03952)
Assay: Kallikrein inhibition FLINT assay with quenched AMC peptide substrate Z-Gly-Pro-Arg-AMC (end point EP or kinetic KIN reads)
Assay type: biochemical
Conditions: kinetic reads at 5 min intervals over 30 min; read-out: Kallikrein (KIN) IC50
Protocol: A fluorescence intensity (FLINT) based assay was used to monitor inhibition of human plasma kallikrein.
The Kallikrein FLINT assay was used with the following Z-Gly-Pro-Arg-AMC assay buffer: 50 mM Tris, pH 7.5, 100 mM NaCl, 5 mM CaCl2, 0.1 mg/mL BSA, 0.03% CHAPS. Assay buffer was prepared by mixing all ingredients fresh. 2× Z-Gly-Pro-Arg-AMC peptide substrate was prepared by diluting 10 mM stock into 1× assay buffer for a 100 μM working concentration (50 μM final concentration).
Test compound(s) were run in an 11-point, 3-fold serial dilution with a final top compound concentration of 1 μM. Final DMSO in assay was 2%. Plasma kallikrein was pre-incubated for 30-minute with compound and then 50 μM substrate was added to initiate the reaction. The assay was run with either end point (EP) reads at 30 min or kinetic (KIN) reads at 5 min intervals over 30 minutes.
Percent inhibition (IC50) curves were generated per compound tested, and data was analyzed using a 4-parameter logistic fit using GeneData Screener. The relative fluorescence unit (RFU) values were normalized to percent inhibition using the following equation: % inhibition=((HC−LC)−(compound−LC)/(HC−LC))*100
An 11-point dose response curve for the test compound(s) was generated using GENDATA to determine IC50 value based on the following equation: Y=Bottom+(Top−Bottom)/(1+10^((log IC50−X)*HillSlope))
Results listed in columns with […] designation were measured using endpoint reads where a single fluorescence reading was measured for each well at a 30 min timepoint.

human plasma kallikrein, sequence (P03952 391-638 limits assumed): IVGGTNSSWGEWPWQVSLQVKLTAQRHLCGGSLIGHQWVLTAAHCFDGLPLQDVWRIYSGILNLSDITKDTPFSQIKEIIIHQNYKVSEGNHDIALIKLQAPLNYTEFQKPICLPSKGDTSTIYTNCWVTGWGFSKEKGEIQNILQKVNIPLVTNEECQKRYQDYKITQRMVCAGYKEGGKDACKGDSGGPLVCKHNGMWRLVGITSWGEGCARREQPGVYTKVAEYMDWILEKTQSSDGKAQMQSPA
human plasma kallikrein, sequence (P03952 20-390 partner limits assumed): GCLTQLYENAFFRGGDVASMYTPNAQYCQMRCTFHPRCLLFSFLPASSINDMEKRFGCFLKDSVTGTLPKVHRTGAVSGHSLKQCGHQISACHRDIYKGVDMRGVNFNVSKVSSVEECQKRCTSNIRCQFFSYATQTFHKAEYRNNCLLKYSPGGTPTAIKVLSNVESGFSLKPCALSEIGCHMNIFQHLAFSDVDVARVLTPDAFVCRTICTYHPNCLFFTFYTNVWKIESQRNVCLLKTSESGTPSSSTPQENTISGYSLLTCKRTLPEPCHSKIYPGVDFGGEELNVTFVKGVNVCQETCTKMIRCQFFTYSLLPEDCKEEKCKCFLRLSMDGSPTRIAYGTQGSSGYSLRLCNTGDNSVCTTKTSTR

Compound: CN1CCN(CC(c2ccc(-c3c(-n4cnnn4)ccc(Cl)c3F)c[n+]2[O-])n2cc(-c3ccnc(C(F)(F)F)c3)cn2)C1=O (centres unmarked) [Example P432]
- IC50: 2.8 nM

Compound: [2H]C([2H])([2H])OC([2H])([2H])CC(c1ccc(-c2c(-n3cc(C(F)(F)F)nn3)ccc(Cl)c2F)c[n+]1[O-])n1cc(-c2ccc(C(N)=O)c(F)c2)cn1 (single isomer, unassigned) [Example P913]
- IC50: 7.2 nM

Compound: CN(CC(c1ccc(-c2c(-n3cnnn3)ccc(Cl)c2F)c[n+]1[O-])n1cc(-c2ccnc(F)c2)cn1)C(=O)OC(C)(C)C (single isomer, unassigned) [Example P354]
- IC50: 38.8 nM

Compound: NC(=O)c1ccc(-c2cnn(C(CCOC(F)F)c3ccc(-c4c(-n5cnnn5)ccc(Cl)c4F)c[n+]3[O-])c2)cc1F (single isomer, unassigned) [Example P929]
- IC50: 5.8 nM

Compound: O=C1CCCN1CC(c1ccc(-c2c(-n3cnnn3)ccc(Cl)c2F)c[n+]1[O-])n1cc(-c2cc[n+]([O-])c(C(F)F)c2)cn1 (centres unmarked) [Example P365]
- IC50: 30.1 nM

Compound: Cc1cc(C(N)=O)sc1-c1cnn(C(CC2CC2)c2ccc(-c3c(-n4cnnn4)ccc(Cl)c3F)c[n+]2[O-])c1 (centres unmarked) [Example P960]
- IC50: 52.9 nM

Compound: Cn1nccc1-c1cnn(C(Cn2cc(F)cn2)c2ccc(-c3c(-n4cnnn4)ccc(Cl)c3F)c[n+]2[O-])c1 (centres unmarked) [Example P503]
- IC50: 13.4 nM

Compound: O=C(O)c1ccc(-c2cnn(C(CC3OCCc4ccccc43)c3ccc(-c4cc(Cl)ccc4-n4cnnn4)c[n+]3[O-])c2)cc1 (centres unmarked) [Example P128]
- IC50: 475 nM

Compound: CN(C)C(=O)c1ccn(CC(c2ccc(-c3c(-n4cnnn4)ccc(Cl)c3F)c[n+]2[O-])n2cc(-c3ccnc(C(F)(F)F)c3)cn2)n1 (single isomer, unassigned) [Example P451]
- IC50: 17.8 nM

Compound: [O-][n+]1ccc(-c2cnn(C(CC3CC3)c3ccc(-c4c(-n5cnnn5)ccc(Cl)c4F)c[n+]3[O-])c2)cc1 (single isomer, unassigned) [Example P280]
- IC50: 84 nM

Compound: Cn1cc(-c2cnn(C(CC3CC3)c3ccc(-c4c(-n5cnnn5)ccc(Cl)c4F)c[n+]3[O-])c2)ccc1=O (centres unmarked) [Example P216]
- IC50: 296 nM

Compound: [2H]C([2H])(C[C@H](c1ccc(-c2c(-n3cc(C(F)(F)F)nn3)ccc(Cl)c2F)c[n+]1[O-])n1cc(-c2ncnn2C)cn1)OC(F)F [Example P820]
- IC50: 68.8 nM

Compound: [O-][n+]1cc(-c2c(-n3cnnn3)ccc(Cl)c2F)ccc1[C@@H](CC1CC1)n1cc(-c2nnco2)cn1 [Example P545]
- IC50: 943 nM

Compound: COCc1ccn(CC(c2ccc(-c3c(-n4cnnn4)ccc(Cl)c3F)c[n+]2[O-])n2cc(-c3ccnc(C(F)(F)F)c3)cn2)n1 (single isomer, unassigned) [Example P440]
- IC50: 70.2 nM

Compound: [O-][n+]1cc(-c2c(-n3cnnn3)ccc(Cl)c2F)ccc1C(Cn1cc(-c2ccccn2)cn1)n1cc(-c2ccccn2)cn1 (single isomer, unassigned) [Example P515]
- IC50: 144 nM

Compound: Cn1nncc1-c1cnn([C@H](Cc2ccn(C(F)F)n2)c2ccc(-c3c(-n4cc(C(F)(F)F)nn4)ccc(Cl)c3F)c[n+]2[O-])c1 [Example P792]
- IC50: 76.2 nM

Compound: COC(=O)Nc1ccc(-c2cnn(C(CC3CCCO3)c3ccc(-c4c(-n5cnnn5)ccc(Cl)c4F)c[n+]3[O-])c2)cc1 (single isomer, unassigned) [Example P202]
- IC50: 119 nM

Compound: [O-][n+]1cc(-c2c(-n3cnnn3)ccc(Cl)c2F)ccc1C(Cc1ccc(F)cc1)n1cc(-c2ccncc2)cn1 (single isomer, unassigned) [Example P235]
- IC50: 1.4 nM

Compound: [O-][n+]1ccc(-c2cnn(C(CCOC(F)F)c3ccc(-c4c(-n5cnnn5)ccc(Cl)c4F)c[n+]3[O-])c2)c(F)c1 (single isomer, unassigned) [Example P306]
- IC50: 14.8 nM

Compound: CC(C)n1nncc1-c1cnn(C(CCOC(F)F)c2ccc(-c3c(-n4cc(C(F)(F)F)nn4)ccc(Cl)c3F)c[n+]2[O-])c1 (centres unmarked) [Example P803]
- IC50: ~93 nM

Compound: COC(=O)Nc1ccc(-c2cnn(C(CN(C)C(=O)OC)c3ccc(-c4c(-n5cnnn5)ccc(Cl)c4F)c[n+]3[O-])c2)cc1 (centres unmarked) [Example P476]
- IC50: 21.6 nM

Compound: COC(=O)Nc1ccc(-c2cnn(C(Cc3ccc(Cl)cc3)c3ccc(-c4c(-n5cnnn5)ccc(Cl)c4F)c[n+]3[O-])c2)cc1 (centres unmarked) [Example P94]
- IC50: 18.3 nM

Compound: Cn1ncc(-c2cnn(C(Cc3ccc(F)cc3)c3ccc(-c4c(-n5cnnn5)ccc(Cl)c4F)c[n+]3[O-])c2)cc1=O (centres unmarked) [Example P116]
- IC50: 26.2 nM

Compound: COC(=O)Nc1ccc(-c2cnn(C(CCOC(F)F)c3ccc(-c4c(-n5cnnn5)ccc(Cl)c4F)c[n+]3[O-])c2)cc1 (centres unmarked) [Example P226]
- IC50: 3 nM

Compound: Cc1cc(-c2cnn(C(Cn3cc(F)cn3)c3ccc(-c4c(-n5cnnn5)ccc(Cl)c4F)c[n+]3[O-])c2)cc[n+]1[O-] (centres unmarked) [Example P472]
- IC50: 40.7 nM

Compound: NC(=O)c1ccc(-c2cnn(C(CC3CC3)c3ccc(-c4c(-n5cnnn5)ccc(Cl)c4F)c[n+]3[O-])c2)cc1F (single isomer, unassigned) [Example P947]
- IC50: 14.5 nM

Compound: O=C(O)c1ccc(-c2cnn(C(Cc3ccc(-c4ccccc4)cc3)c3ccc(-c4cc(Cl)ccc4-n4cnnn4)c[n+]3[O-])c2)cc1 (centres unmarked) [Example P62]
- IC50: 7.8 nM

Compound: [O-][n+]1cc(-c2c(-n3cnnn3)ccc(Cl)c2F)ccc1C(Cn1ccc(C2CCOCC2)n1)n1cc(-c2ccnc(C(F)(F)F)c2)cn1 (centres unmarked) [Example P419]
- IC50: 36.3 nM

Compound: O=C(c1cnn(CC(c2ccc(-c3c(-n4cnnn4)ccc(Cl)c3F)c[n+]2[O-])n2cc(-c3ccnc(C(F)(F)F)c3)cn2)c1)N1CCCCC1 (single isomer, unassigned) [Example P411]
- IC50: 16 nM

Compound: O=C(O)c1ccc(-c2cnn(C(CN3CCCC3=O)c3ccc(-c4c(C(F)F)ccc(Cl)c4F)c[n+]3[O-])c2)cc1 (single isomer, unassigned) [Example Q14]
- IC50: 3.9 nM

Compound: [O-][n+]1cc(-c2c(-n3cnnn3)ccc(Cl)c2F)ccc1[C@@H](Cc1cn(C(F)F)nn1)n1cc(-c2ccnc(C(F)(F)F)c2)cn1 [Example P748]
- IC50: 6.4 nM

Compound: COC(=O)Nc1ccc(-c2cnn(C(CC3CC3C(=O)N3CCCC(c4ccccc4)C3)c3ccc(-c4c(-n5cnnn5)ccc(Cl)c4F)c[n+]3[O-])c2)cc1 (centres unmarked) [Example P221]
- IC50: 377 nM

Compound: Nc1ccc(-c2cnn(C(Cn3cccn3)c3ccc(-c4c(-n5cnnn5)ccc(Cl)c4F)c[n+]3[O-])c2)c(F)n1 (single isomer, unassigned) [Example P315]
- IC50: 51 nM

Compound: Cn1cc(CC(c2ccc(-c3c(-n4cnnn4)ccc(Cl)c3F)c[n+]2[O-])n2cc(-c3ccnc(C#N)c3)cn2)cn1 (centres unmarked) [Example P408]
- IC50: 17.4 nM

Compound: NC(=O)Cc1ccnn1CC(c1ccc(-c2c(-n3cnnn3)ccc(Cl)c2F)c[n+]1[O-])n1cc(-c2ccnc(C(F)(F)F)c2)cn1 (centres unmarked) [Example P470]
- IC50: 99.5 nM

Compound: Nc1ncc(-c2cnn(C(CC3CC3)c3ccc(-c4c(-n5cnnn5)ccc(Cl)c4F)c[n+]3[O-])c2)cc1F (single isomer, unassigned) [Example P194]
- IC50: 228 nM

Compound: NC(=O)Cc1ccn(CC(c2ccc(-c3c(-n4cnnn4)ccc(Cl)c3F)c[n+]2[O-])n2cc(-c3ccnc(C(F)(F)F)c3)cn2)n1 (centres unmarked) [Example P486]
- IC50: 10.2 nM

Compound: CC1CC1CC(c1ccc(-c2c(-n3cnnn3)ccc(Cl)c2F)c[n+]1[O-])n1cc(-c2ncnn2C(F)F)cn1 (centres unmarked) [Example P764]
- IC50: > 100 nM

Compound: CCOC(=O)C1CC1CC(c1ccc(-c2cc(Cl)ccc2-n2cnnn2)c[n+]1[O-])n1cc(-c2ccc(C(=O)O)cc2)cn1 (centres unmarked) [Example P68]
- IC50: 513 nM

Compound: O=C(NC1CC1)c1ccc(-c2cnn(C(Cc3ccc(F)cc3)c3ccc(-c4c(-n5cnnn5)ccc(Cl)c4F)c[n+]3[O-])c2)cc1 (centres unmarked) [Example P125]
- IC50: 3.3 nM

Compound: [O-][n+]1cc(-c2c(-n3cnnn3)ccc(Cl)c2F)ccc1C(CC1CC1)n1cc(-c2ccnc(C(F)(F)F)n2)cn1 (centres unmarked) [Example P295]
- IC50: 385 nM

Compound: O=C(NC1CC1)c1ccc(-c2cnn(C(Cc3ccc(-c4ccccc4)cc3)c3ccc(-c4cc(Cl)ccc4-n4cnnn4)c[n+]3[O-])c2)cc1 (centres unmarked) [Example P87]
- IC50: 79.8 nM

Compound: [O-][n+]1cc(-c2c(-n3cnnn3)ccc(Cl)c2F)ccc1[C@@H](CCOC(F)F)n1cc(-c2cncn2C(F)F)cn1 [Example P771]
- IC50: 16.2 nM

Compound: Nc1ncc(-c2cnn(C(Cc3ccc(Cl)cc3)c3ccc(-c4c(-n5cnnn5)ccc(Cl)c4F)c[n+]3[O-])c2)cc1F (centres unmarked) [Example P162]
- IC50: 6.8 nM

Compound: O=C(O)c1cccc(-c2cnn(C(CC3CC3)c3ccc(-c4cc(Cl)ccc4-n4cnnn4)c[n+]3[O-])c2)c1 (centres unmarked) [Example P13]
- IC50: 536 nM

Compound: CCC(c1cc(OC)c(-c2cc(Cl)ccc2C#N)c[n+]1[O-])n1cc(-c2ncnn2C(F)F)cn1 (centres unmarked) [Example Q54]
- IC50: 753 nM

Compound: O=C(NC1CC1)c1ccc(-c2cnn(C(CC3CCCCO3)c3ccc(-c4c(-n5cnnn5)ccc(Cl)c4F)c[n+]3[O-])c2)cc1 (single isomer, unassigned) [Example P77]
- IC50: 36.2 nM

Compound: COC(=O)Nc1ccc(-c2cnn(C(CC3CCC3)c3ccc(-c4c(-n5cnnn5)ccc(Cl)c4F)c[n+]3[O-])c2)cc1 (centres unmarked) [Example P109]
- IC50: 45.7 nM

Compound: COC(=O)N1CCC(c2cnn(C(CC3CC3)c3ccc(-c4c(-n5cnnn5)ccc(Cl)c4F)c[n+]3[O-])c2)CC1 (centres unmarked) [Example P167]
- IC50: 826 nM

Compound: [O-][n+]1cc(-c2c(-n3cnnn3)ccc(Cl)c2F)ccc1C(Cn1cc2c(n1)COCC2)n1cc(-c2ccnc(C(F)(F)F)c2)cn1 (centres unmarked) [Example P465]
- IC50: 76.5 nM
